Converted amounts (≈) assume the structure as drawn.
Assays:
[1] = system: dextran sulfate sodium (DSS)-induced chronic colitis in mice; assay: DSS-induced chronic colitis model in mice; type: in vivo, C57BL/6 mice; settings: for Body weight compared with model group: FIG. 11; for Body weight compared with model group / Colon length compared with model group: P<0.05; for Diarrhea (general symptoms) during drug administration / Number of mice with no obvious diarrhea: 100 mg/kg daily, six mice per group; for Diarrhea (general symptoms) during drug administration: 18 days; for Grading scores for chronic inflammation of colon: number of mice colons with score 0 / Grading scores for chronic inflammation of colon: number of mice colons with score + / Grading scores for chronic inflammation of colon: number of mice colons with score ++: 3 mice examined per group, HE staining; for Grading scores for chronic inflammation of colon: number of mice colons with score 0: score 0 = no obvious inflammatory cell infiltration; for Grading scores for chronic inflammation of colon: number of mice colons with score +: + = slight inflammatory cell infiltration; for Grading scores for chronic inflammation of colon: number of mice colons with score ++: ++ = moderate inflammatory cell infiltration
From the text: Determination of the therapeutic effects of myricetin derivative M5, M6 and M7 on dextran sulfate sodium (DSS)-induced chronic colitis in mice
1. Compounds tested and control drugs: myricetin derivative M5, M6 and M7, positive control drug-sulfasalazine (SASP, from Sigma); control drug-myricetin;
Experimental animals: C57BL/6 mice, 20 to 22 g, both male and female, SPF grade provided by Charles River Laboratories, Beijing.
2. DSS-induced chronic colitis model in mice: 36 C57BL/6 mice were randomly divided into six groups, with six mice in each group. DSS (0.5 g) was weighed and dissolved in 50 ml of purified water, for 6 mice to drink in one day. The DSS water was made freshly and was provided at fixed time on a daily basis for 7 days successively, which was then replaced by freshly-made purified drinking water for the next successive 14 days. The same procedure was repeated successively for 3 times. Each group of mice was given the same treatment for the preparation of chronic colitis model. 3. Drug preparation method: 3.1 Solvent control group: 0.5 mL of DMSO was added to 10 mL of 0.5% CMC-Na. 3.2 Myricetin derivative M5 and M6 tested: 100 mg of M5 and M6 each was weighed and dissolved in 0.5 ml of DMSO, and diluted to 10 mL with 0.5% CMC-Na. 3.3 Myricetin derivative M7 tested: 100 mg of M7 was weighed and dissolved in 10 mL of 5% sodium bicarbonate injection. 3.4 Myricetin control: 100 mg of myricetin was weighed and dissolved in 10 mL of 0.5% CMC-Na. 3.5 Sulfasalazine (SASP): 100 mg of SASP was weighed and dissolved in 10 mL of saline. 4. Administration method: the body weight of mice was weighed daily, and drugs were administered 0.01 ml/g (100 mg/kg) consecutively for 18 days. 5. Animal observation and treatment method: body weight, diet, diarrhea (or bloody stools) etc. were observed daily. At the end of the experiment, mice were sacrificed for dissection. The colon and small intestine were dissected out for visual observation and pathological analysis. Pathological examination methods and evaluation criteria: the colons of each group were fixed with 10% formalin followed by routine paraffin embedding, sectioning and HE staining. The degree of colonic inflammation in each group was evaluated under microscope. According to the degree of inflammatory cell infiltration in colonic lamina propria, the following grading criteria were established: level 0, no obvious inflammatory cell infiltration; +(level 1), slight inflammatory cell infiltration; ++(level 2), moderate inflammatory cell infiltration; +++(level 3), severe inflammatory cell infiltration and may be accompanied by necrosis or loss of mucosal cells.
Determination of Therapeutic Effects of Myricetin Derivative M13 and M14 on DSS-Induced Chronic Colitis in Mice
See Example 8 for the experimental method.

[2] = system: mouse peritoneal macrophage RAW264.7; assay: Cytotoxicity / cell proliferation in RAW264.7 macrophages; type: cell-based; settings: incubated 24 hours; dose increased to 20 μM
From the text: Therefore, this series of compounds may be considered suitable for drug development for treating chronic colitis and inflammatory bowel disease.

[3] = Water solubility test (equilibrium solubility in pure water, LC/MS); type: physicochemical; settings: 37° C.; for solubility at 24 h: ultrapure water, thermodynamic from solid
Protocol: Water solubility test for myricetin derivative M5, M6 and M10
Instrument: Waters Alliance e2695 LC/MS; chromatographic column: Waters×Bridge C18 4.6×150 mm.
Appropriate amount of said myricetin derivative was weighed and dissolved in methanol to prepare a solution of 1 mg/ml respectively, which was diluted with methanol to different concentrations of working solution as standard samples for testing.
2. 1 mL of ultrapure water was added into a 1.5 ml transparent EP tube. Appropriate amount of said myricetin derivative was each added into a transparent EP tube, followed by vortex mixation and ultrasonication till the drug was no longer dissolved (the solution appeared cloudy or had suspended particles). The mixture was then placed in an incubating oscillator for shaking at the temperature of (37±1) ° C., 100 r/min, for 24 hours, to achieve a sufficient solubility balance. 24 hours later, the saturated solution was taken out for centrifugation at 3000 r/min for 15 min. The supernatant was immediately filtered through a 0.45 μm microporous membrane, and the initial part of the filtrate was discarded. Samples were added for chromatography. The peak area was measured and the equilibrium solubility of each compound in pure water was calculated using a standard curve.

[4] = system: azomethane (AOM)/dextran sulfate sodium (DSS)-induced chronic ulcerative colitis and inflammation-associated tumorigenesis; assay: AOM/DSS-induced chronic ulcerative colitis and inflammation-associated tumorigenesis in mice; type: in vivo, C57BL/6 mice; settings: 100 mg/kg aspirin or myricetin; M10 25-100 mg/kg; 12 weeks; FIG. 8
From the text: Determination of therapeutic effect of myricetin derivative M10 on azomethane (AOM)/dextran sulfate sodium (DSS)-induced chronic ulcerative colitis and inflammation-associated tumorigenesis.
Compound tested and control drugs: myricetin derivative M10, control compound myricetin, aspirin (Sigma).
Experimental animals: C57BL/6 mice, 20 to 22 g, both male and female, SPF grade provided by Beijing Vital Lihua Experimental Animal Company, and mice were fed with standard animal feed.
Animal models of AOM/DSS-induced chronic colitis and inflammation-associated tumorigenesis: 48 C57BL/6 mice were randomly divided into six groups with eight mice in each group, including model group, for which 0.5% CMC-Na was administered intragastrically every day; aspirin group, for which 100 mg/kg of aspirin (dissolved in 0.5% CMC-Na) was administered intragastrically; myricetin control group, for which 100 mg/kg of myricetin (dissolved in 0.5% CMCNa) was administered intragastrically; M10 high dose group, for which 100 mg/kg of M10 (dissolved in pure water) was administered intragastrically; M10 medium dose group, for which 50 mg/kg of M10 (dissolved in pure water) was administered intragastrically; M10 low dose group, for which 25 mg/kg of M10 (dissolved in pure water) was administered intragastrically.
Preparation of chronic ulcerative colitis mice model: said groups of mice were intraperitoneally injected with 10 mg/kg of azoxymethane (AOM) on day one. Purified drinking water containing 2% dextran sulfate sodium (DSS) was freshly made and provided on day one and on the next six consecutive days, the replaced by purified drinking water for the next seven consecutive days. The above procedure was then repeated for 3 more times.
M10-treated group: 200 mg of M10 was weighed and dissolved in 10 mL of 0.5% CMC-Na solution (20 mg/mL), and consecutively diluted 2 times and 5 times for future use. 0.2 mL of each prepared solutions was given intragastrically to mice (the body weight was assumed as 20 g per mouse), namely divided into high, medium or small dose groups. Myricetin control group: 200 mg of myricetin was weighed and dissolved in 10 mL of 0.5% CMC-Na. Aspirin-treated group: 200 mg of aspirin was weighed and dissolved in 10 mL of 0.5% CMC-Na. Administration method: The body weight of mice was measured daily, and drugs were administered at 0.01 mL/g (100 mg/kg) per day for 12 consecutive weeks. 4. Animal observation and treatment methods: weight, diet, diarrhea (or bloody stools) etc. were observed daily.
At the end of the experiment, mice were sacrificed. The colon and small intestine were dissected out for visual observation and pathological analysis. Pathological examination methods and evaluation criteria: the mice colons of each group were fixed with 10% formalin, followed by routine paraffin embedding, sectioning and HE staining. The developmental degree of colonic inflammation and colon cancer in each group of mice was evaluated under microscopic observation.

[5] = Example 17, method of Example 8
[6] = Example 17, method of Example 8, FIG. 12
[7] = 100 mg/kg for 18 days, end of experiment, FIG. 2

O=c1c(O[C@@H]2O[C@H](CO[C@@H]3O[C@H](CO)[C@@H](O)[C@H](O)[C@@H]3O)[C@H](O)[C@H](O)[C@H]2O)c(-c2cc(O)c(O)c(O)c2)oc2cc(O)cc(O)c12 [M14]
Body weight compared with model group [1, 5]: significantly increased | Colon length compared with model group [1, 6]: significantly increased

O=c1c(O[C@@H]2O[C@H](CO)[C@@H](O[C@@H]3O[C@H](CO)[C@H](O)[C@H](O)[C@H]3O)[C@H](O)[C@H]2O)c(-c2cc(O)c(O)c(O)c2)oc2cc(O)cc(O)c12 [M7]
Diarrhea (general symptoms) during drug administration [1]: significant reduction in diarrhea | Number of mice with no obvious diarrhea [1]: 4 mice | Grading scores for chronic inflammation of colon: number of mice colons with score 0 ([1]; 100 mg/kg for 18 days): 3 | Degree of chronic colonic inflammation (pathological examination) ([1]; 100 mg/kg for 18 days, FIG. 3 and Table 1): significantly alleviated | Colon length compared with model group [1, 7]: significantly longer | Inhibitory effect on cell proliferation (cytotoxic effect) [2]: no significant inhibitory effect

O=C(O)c1cc(/N=N/c2ccc(S(=O)(=O)Nc3ccccn3)cc2)ccc1O [SASP, sulfasalazine, reference compound]
Diarrhea (general symptoms) during drug administration [1]: slight reduction in diarrhea | Grading scores for chronic inflammation of colon: number of mice colons with score + ([1]; 100 mg/kg for 18 days): 1 | Grading scores for chronic inflammation of colon: number of mice colons with score ++ ([1]; 100 mg/kg for 18 days): 2

CC(=O)OC[C@H]1O[C@@H](O[C@H]2[C@H](OC(C)=O)[C@@H](OC(C)=O)[C@H](Oc3c(-c4cc(O)c(O)c(O)c4)oc4cc(O)cc(O)c4c3=O)O[C@@H]2COC(C)=O)[C@H](OC(C)=O)[C@@H](OC(C)=O)[C@H]1OC(C)=O [M6]
Diarrhea (general symptoms) during drug administration [1]: slight reduction in diarrhea | Number of mice with no obvious diarrhea [1]: 1-2 mice | Grading scores for chronic inflammation of colon: number of mice colons with score + ([1]; 100 mg/kg for 18 days): 2 | Grading scores for chronic inflammation of colon: number of mice colons with score 0 ([1]; 100 mg/kg for 18 days): 1 | Colon length compared with model group [1, 7]: significantly longer | Inhibitory effect on cell proliferation (cytotoxic effect) [2]: no significant inhibitory effect | solubility at 24 h [3]: 1.4 µg/mL (≈ 1.49 µM)

O=c1c(O[C@@H]2O[C@H](CO[C@@H]3O[C@H](CO)[C@@H](O)[C@H]3O)[C@H](O)[C@H](O)[C@H]2O)c(-c2cc(O)c(O)c(O)c2)oc2cc(O)cc(O)c12 [M13]
Body weight compared with model group [1, 5]: significantly increased | Colon length compared with model group [1, 6]: significantly increased

CC(=O)OC[C@H]1O[C@@H](O[C@H]2[C@H](OC(C)=O)[C@@H](OC(C)=O)[C@H](Oc3c(-c4cc(OCc5ccccc5)c(OCc5ccccc5)c(OCc5ccccc5)c4)oc4cc(OCc5ccccc5)cc(O)c4c3=O)O[C@@H]2COC(C)=O)[C@H](OC(C)=O)[C@@H](OC(C)=O)[C@H]1OC(C)=O [M5]
Diarrhea (general symptoms) during drug administration [1]: no significant reduction in diarrhea | Grading scores for chronic inflammation of colon: number of mice colons with score + ([1]; 100 mg/kg for 18 days): 1 | Grading scores for chronic inflammation of colon: number of mice colons with score ++ ([1]; 100 mg/kg for 18 days): 2 | Inhibitory effect on cell proliferation (cytotoxic effect) [2]: no significant inhibitory effect | Solubility (in words) ([3]; 24 h, per Table 2): very low | solubility at 24 h [3]: < 0.1 µg/mL

CC(=O)Oc1ccccc1C(=O)O [aspirin, reference compound]
Pathological analysis of colon tissue (colon cancer) [4]: alleviated to some extent

Reference: patent US11021507B2, “Myricetin derivative and preparing method thereof, and application of same for treating colitis, preventing and treating colitis tumorigenesis, and treating colorectal cancer” (MARINE BIOMEDICAL RESEARCH INSTITUTE OF QINGDAO CO., LTD., priority 2016, dated 2021)
